Results from article PMC8151276, “An Integrated Approach toward NanoBRET Tracers for Analysis of GPCR Ligand Engagement” (Molecules, 2021).

Biological target: T1, HTR7 (Homo sapiens, UniProt P34969)
T1 construct: purchased Promega (in-house HiBiT-GPCR construct library, NanoBRET)
Experiment: NanoBRET screen HiBiT-HTR7 in HEK293
Type: binding
Method: Each tracer candidate was screened across the entire library of HiBiT-GPCR constructs using NanoBRET as the detection modality. As depicted in Figure 4A, the specificity of interactions was evaluated through decrease in BRET due to competitive displacement of a bound tracer by excess parental compound. Each tracer was analyzed for binding to each HiBiT-GPCR fusion in the absence and in the presence of competing parental compound. Briefly, HEK293 cells were transfected with HiBiT-GPCR constructs diluted into promoterless DNA to reduce expression and maximize translocation to the cell surface. Each tracer candidate was then screened at concentrations of 1 μM and 0.1 μM across cells expressing these fusions. Cells were treated for 1.5 h with tracer either alone or in the presence of 20 μM competing parental compound (i.e., control). BRET was measured upon addition of purified LgBiT and subsequent complementation with HiBiT genetically fused to a GPCR. The specificity of interactions was assessed through a decrease in BRET signal due to competitive displacement of the bound tracer. To further gauge the robustness of these interactions, the fold response over the control (i.e., BRETtracer/BRETcontrol) was calculated. We chose a 1.5-fold response, which translates to ≥7-fold signal over noise as the minimal threshold required to score an interaction as positive.
HiBiT-GPCR DNA constructs were diluted in 10 mM Tris pH 8 to a final concentration of 0.01 μg/μL, arrayed in 96-well plates and stored at −20 °C. For transfection, HEK293 cells were suspended in Opti-MEM (without phenol red) supplemented with 2% fetal bovine serum (Seradigm) and 100 units/mL penicillin–streptomycin (Gibco) at a final concentration of 220,000 cells/mL and dispensed into white 96-well plates at 90 μL/well. Subsequent transfections and screens were carried using an Agilent Bravo Automated Liquid Handling Platform. First, the 96-well HiBiT DNA arrays were diluted 25-fold in Opti-MEM (without serum or phenol red) to a final concentration of 0.0004 μg/μL and 20 μL of the diluted DNAs were transferred into new 96-well plates. Next, promoterless carrier DNA (1 μg/μL) was diluted 25-fold (0.04 μg/μL) and then dispensed into the diluted arrays at 20 μL/well. Following brief mixing, Viafect transfection reagent (Promega) diluted 16-fold into Opti-MEM was dispensed into the plates at 40 μL/well. After mixing by pipetting, plates were incubated for 10 min on the pipetting station deck. The DNA-transfection reagent complexes were then added to plates containing cells. To facilitate the screen, 10 μL of DNA-transfection reagent complexes were added in duplicates to the top 4 and bottom 4 rows, resulting in two identical 48-well arrays per plate. Plates with transfected cells were incubated for 18–20 h at 37 °C/5% CO2. A screen of each tracer across the entire library using two different concentrations requires duplicate plates of transfected cells. Depending on the number of tracers being screened, transfections can be scaled up using the same ratios. The next day, for each tracer, four 20× screening solutions in tracer dilution buffer (Promega) were prepared: two duplicates at final concentration of 20 μM and two duplicates at a final concentration of 2 μM. […] The four resulting solutions were diluted 4-fold in Opti-MEM without serum or phenol red to generate 5× solutions (5 µM and 0.5 µM tracer +/− 100 μM competing compound). To screen the library, a BioTek MultiFlo FX liquid dispenser was used to dispense 22.5 µL of tracer solution to the top 4 rows and 22.5 µL tracer + competing compound solution to the 4 bottom rows. Plates were briefly mixed on an orbital shaker and incubated for 1.5 h at room temperature. […] Plates were briefly mixed on an orbital shaker and incubated for 15 min to allow complementation.

T1 sequence (P34969 whole entry): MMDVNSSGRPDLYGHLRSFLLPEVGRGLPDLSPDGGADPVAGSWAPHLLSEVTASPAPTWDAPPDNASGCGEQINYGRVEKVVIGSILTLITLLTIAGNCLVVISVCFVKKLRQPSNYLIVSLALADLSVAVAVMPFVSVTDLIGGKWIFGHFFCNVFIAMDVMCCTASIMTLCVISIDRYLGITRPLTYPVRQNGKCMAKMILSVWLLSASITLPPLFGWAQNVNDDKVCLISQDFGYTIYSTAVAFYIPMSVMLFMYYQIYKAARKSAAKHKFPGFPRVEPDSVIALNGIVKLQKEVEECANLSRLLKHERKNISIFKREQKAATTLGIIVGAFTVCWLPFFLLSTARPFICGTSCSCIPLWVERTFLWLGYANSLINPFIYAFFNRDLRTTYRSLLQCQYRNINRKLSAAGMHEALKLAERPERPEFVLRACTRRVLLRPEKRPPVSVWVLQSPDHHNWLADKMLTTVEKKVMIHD

Structure (SMILES)	NanoBRET Fold Response (HTR7, tracer 0.1μM)	NanoBRET Fold Response (HTR7, tracer 1μM)	further results
COc1ccc2c(n1)c(CCNC(C)=O)cn2CCNC(=O)CCc1ccc2n1[B-](F)(F)[N+]1=C(c3ccc[nH]3)C=CC1=C2 [Azamelatonin-1-NB590]			NanoBRET Fold Response (0.1μM tracer): 0.99; NanoBRET Fold Response (1μM tracer): 0.99
CC(C)N(CC[C@H](c1ccccc1)c1cc(CCNC(=O)c2ccc(CNC(=O)CCc3ccc4n3[B-](F)(F)[N+]3=C(c5ccc[nH]5)C=CC3=C4)cc2)ccc1O)C(C)C [Tolterodine-BZ-NB590]	1.06	1.03	
O=C(CCc1ccc2n1[B-](F)(F)[N+]1=C(c3ccc[nH]3)C=CC1=C2)NCCOCCOCCNC(=O)OCCOCCN1CCN(C2=Nc3ccccc3Sc3ccccc32)CC1 [Quetiapine-a-2-NB590]	1.01	1.15	
Cc1cc2c(s1)Nc1ccccc1N=C2N1CCN(CCCNC(=O)CCOCCOCCOCCOCCNC(=O)CCc2ccc3n2[B-](F)(F)[N+]2=C(c4ccc[nH]4)C=CC2=C3)CC1 [Olanzapine-a-2-NB590]	0.99	1.16	
O=C(CCc1ccc2n1[B-](F)(F)[N+]1=C(c3ccc[nH]3)C=CC1=C2)NCc1ccc(C(=O)NCCOCCOCCNCC(O)COc2cccc3ccccc23)cc1 (centres unmarked) [Propranolol-3-NB590]			NanoBRET Fold Response (HTR7, 0.1μM): 1.03; NanoBRET Fold Response (HTR7, 1μM): 1.02
N#CN/C(=N\CCNC(=O)c1ccc(N)cc1)NCCCOc1cccc(CN2CCCCC2)c1 [Aminopotentidine (unmodified)]			NanoBRET Fold Response (HTR7, other tracers/Aminopotentidine (unmodified), 0.1μM): 1.10; NanoBRET Fold Response (HTR7, other tracers/Aminopotentidine (unmodified), 1μM): 1.18
O=C(CCc1ccc2n1[B-](F)(F)[N+]1=C(c3ccc[nH]3)C=CC1=C2)NCc1ccc(C(=O)NCCOCCC(=O)N[C@@H]2CC[C@@]3(O)[C@H]4Cc5ccc(O)c6c5[C@@]3(CCN4CC3CC3)[C@H]2O6)cc1 [Naltrexone-3-NB590]	0.97	0.97	
CC(C)N(CC[C@H](c1ccccc1)c1cc(CCNC(=O)CCOCCOCCOCCOCCNC(=O)CCc2ccc3n2[B-](F)(F)[N+]2=C(c4ccc[nH]4)C=CC2=C3)ccc1O)C(C)C [Tolterodine-2-NB590]	1.06	1.07	
Cc1nc2n(c(=O)c1CCN1CCC(c3noc4cc(F)ccc34)CC1)CCCC2OC(=O)NCCOCCOCCOCCOCCNC(=O)CCc1ccc2n1[B-](F)(F)[N+]1=C(c3ccc[nH]3)C=CC1=C2 (centres unmarked) [Risperidone-2-NB590]	1.06	1.19	
O=C(CCOCCOCCOCCOCCNC(=O)CCc1ccc2n1[B-](F)(F)[N+]1=C(c3ccc[nH]3)C=CC1=C2)NCCCN1CCN(C2=Nc3cc(Cl)ccc3Nc3ccccc32)CC1 [Clozapine-a-2-NB590]			NanoBRET Fold Response (HTR7, 0.1μM tracer): 1.22; NanoBRET Fold Response (HTR7, 1μM tracer): 1.08
COc1ccc2[nH]c(-c3ccc(CNC(=O)CCOCCOCCOCCOCCNC(=O)CCc4ccc5n4[B-](F)(F)[N+]4=C(c6ccc[nH]6)C=CC4=C5)cc3)c(CCNC(C)=O)c2n1 [AzomelatoninICO9-2-NB590]			NanoBRET Fold Response (0.1μM tracer): 0.96; NanoBRET Fold Response (1μM tracer): 1.02
COc1ccccc1N1CCN(CCCCN2C(=O)c3ccc(CNC(=O)CCOCCNC(=O)c4ccc(CNC(=O)CCc5ccc6n5[B-](F)(F)[N+]5=C(c7ccc[nH]7)C=CC5=C6)cc4)cc3C2=O)CC1 [NAN-190-3-NB590]	1.21	1.05	
N#CN=C(NCCCOc1cccc(CN2CCCCC2)c1)NCCNC(=O)CCOCCOCCOCCOCCNC(=O)CCc1ccc2n1[B-](F)(F)[N+]1=C(c3ccc[nH]3)C=CC1=C2 [Aminopotentidine-2-NB590]	1.00	1.00	
CN(C)CCC=C1c2ccccc2CCc2ccc(C(=O)NCCNC(=O)CCOCCOCCOCCOCCNC(=O)CCc3ccc4n3[B-](F)(F)[N+]3=C(c5ccc[nH]5)C=CC3=C4)cc21 [Amitriptyline-b-2-NB590]			NanoBRET Fold Response (tracer at 0.1μM, listed as amitriptyline-b-2-NB590): 0.94; NanoBRET Fold Response (tracer at 1μM, listed as amitriptyline-b-2-NB590): 0.94
COc1ccccc1N1CCN(CCCCN2C(=O)c3ccc(CNC(=O)CCOCCOCCOCCOCCNC(=O)CCc4ccc5n4[B-](F)(F)[N+]4=C(c6ccc[nH]6)C=CC4=C5)cc3C2=O)CC1 [NAN-190-2-NB590]		1.10	
O=C(CCOCCOCCOCCOCCNC(=O)CCc1ccc2n1[B-](F)(F)[N+]1=C(c3ccc[nH]3)C=CC1=C2)NCCCN1CCN(C2=Nc3ccccc3Oc3ccc(Cl)cc32)CC1 [Loxapine-a-2-NB590]	1.07	1.30	
CN(CCC=C1c2ccccc2CCc2ccccc21)C(=O)CCOCCOCCOCCOCCNC(=O)CCc1ccc2n1[B-](F)(F)[N+]1=C(c3ccc[nH]3)C=CC1=C2 [Amitriptyline-e-2-NB590]			NanoBRET Fold Response (tracer at 1μM): 0.96
CCCn1c(=O)c2[nH]c(-c3ccc(OCC(=O)NCCNC(=O)CCOCCNC(=O)c4ccc(CNC(=O)CCc5ccc6n5[B-](F)(F)[N+]5=C(c7ccc[nH]7)C=CC5=C6)cc4)cc3)nc2n(CCC)c1=O [XAC-3-NB590]	0.99	0.96	
CN(C)CCC=C1c2ccccc2CCc2ccc(C(=O)NCCNC(=O)CCOCCOCCOCCOCCNC(=O)CCc3ccc4n3[B-](F)(F)[N+]3=C(c5ccc[nH]5)C=CC3=C4)cc21 [Amitriptyline-a-2-NB590]			NanoBRET Fold Response (tracer at 0.1μM): 1.00; NanoBRET Fold Response (tracer at 1μM): 1.15
CCOC(=O)c1cc(C#N)c(N2CCC(C(=O)NS(=O)(=O)Cc3ccccc3/C=C/C(=O)NCCNC(=O)CCc3ccc4n3[B-](F)(F)[N+]3=C(c5ccc[nH]5)C=CC3=C4)CC2)nc1C [AZD1283-1-NB590]			NanoBRET Fold Response (HTR7, 0.1μM): 1.08; NanoBRET Fold Response (HTR7, 1μM): 1.09
